Where a name gives a salt, the structure may show the parent alone.
Assays:
MAO (substrate 5-HT) = molecular target: T1, MAO (substrate 5-HT) (Rattus norvegicus, UniProt P21396); experiment: MAO inhibition in vitro, rat brain homogenate, substrate 14C-labelled serotonin (5-HT); format: biochemical; conditions: substrate 5-HT 2×10^-4 M, 37° C.
T1 construct: 20 μl of rat brain homogenate; from tissue; host or cells: rat brain homogenate
T1 sequence (P21396 1-526): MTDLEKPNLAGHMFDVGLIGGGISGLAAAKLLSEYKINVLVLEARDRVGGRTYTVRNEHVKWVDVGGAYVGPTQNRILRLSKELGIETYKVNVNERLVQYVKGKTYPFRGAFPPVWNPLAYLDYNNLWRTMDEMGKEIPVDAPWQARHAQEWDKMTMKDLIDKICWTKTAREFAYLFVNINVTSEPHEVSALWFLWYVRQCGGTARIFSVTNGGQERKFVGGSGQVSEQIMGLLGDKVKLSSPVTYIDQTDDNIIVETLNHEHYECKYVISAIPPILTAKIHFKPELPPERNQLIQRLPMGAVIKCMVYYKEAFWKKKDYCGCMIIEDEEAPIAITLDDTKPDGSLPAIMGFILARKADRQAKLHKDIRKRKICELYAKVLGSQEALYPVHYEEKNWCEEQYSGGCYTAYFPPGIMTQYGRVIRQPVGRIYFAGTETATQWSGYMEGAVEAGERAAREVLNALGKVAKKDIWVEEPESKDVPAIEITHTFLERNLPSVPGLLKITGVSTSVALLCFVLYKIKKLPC
Protocol: (§1) The MAO inhibiting activity of the compounds in accordance with the invention can be determined in vitro or ex vivo using standard methods. The preparations to be tested were investigated in the tests described hereinafter, which were based on the methods of R. J. Wurtmann and J. A. Axelrod [Biochem. Pharmac. 12, 1439-41 (1963).
(§2) Isolated rat brains are homogenized in 0.1 molar potassium phosphate buffer (pH 7.4) in the ratio 1:4 (weight/volume), the homogenate is diluted with the same buffer in the ratio 1:5 (volume/volume) and stored at -20° C. A mixture of the following composition was used for the incubation:
(§3) 100 μl of 1M phosphate buffer (pH 6.7);
(§4) 100 μl of solution of the substance to be tested in water or in 10% aqueous dimethyl sulphoxide;
(§5) 20 μl of rat brain homogenate; and as the substrate
(§6) 80 μl of ^14 C-labelled serotonin (5-HT) or ^14 C-labelled phenylethylamine (PEA), the radioactive concentration of which amounts to 100,000 decay per minute and which is used in a final concentration of 2×10^-4 M and, respectively, 2×10^-5 M.
(§7) A pre-incubation at 37° C. is effected for 30 minutes prior to the addition of the substrate. The incubation (in the presence of the substrate) is likewise effected at 37° C. and lasts for 10 minutes. The reaction is stopped by the addition of 200 μl of 2N hydrochloric acid.
(§8) In order to extract the desaminated product, the mixture is shaken for 10 minutes with 5 ml of diethyl ether or with 5 ml of n-heptane depending on whether 5-HT or PEA is used as the substrate, whereupon the mixture is centrifuged, the aqueous phase is frozen in a dry-ice bath, the organic phase is transferred into a counting glass and the radioactive concentration is determined in a β-counter.
(§9) The activity of the MAO in comparison to the control homogenates (without substance to be tested) is obtained on the basis of the β-values and the IC50 is defined as that concentration of a substance to be tested which reduces the activity of the MAO upon the substrate 5-HT or PEA by 50%.

MAO (substrate PEA) = molecular target: T2, MAO (substrate PEA) (Rattus norvegicus, UniProt P19643); experiment: MAO inhibition in vitro, rat brain homogenate, substrate 14C-labelled phenylethylamine (PEA); format: biochemical; conditions: substrate PEA 2×10^-5 M, 37° C.
T2 construct: 20 μl of rat brain homogenate; from tissue; host or cells: rat brain homogenate
T2 sequence (P19643 1-520): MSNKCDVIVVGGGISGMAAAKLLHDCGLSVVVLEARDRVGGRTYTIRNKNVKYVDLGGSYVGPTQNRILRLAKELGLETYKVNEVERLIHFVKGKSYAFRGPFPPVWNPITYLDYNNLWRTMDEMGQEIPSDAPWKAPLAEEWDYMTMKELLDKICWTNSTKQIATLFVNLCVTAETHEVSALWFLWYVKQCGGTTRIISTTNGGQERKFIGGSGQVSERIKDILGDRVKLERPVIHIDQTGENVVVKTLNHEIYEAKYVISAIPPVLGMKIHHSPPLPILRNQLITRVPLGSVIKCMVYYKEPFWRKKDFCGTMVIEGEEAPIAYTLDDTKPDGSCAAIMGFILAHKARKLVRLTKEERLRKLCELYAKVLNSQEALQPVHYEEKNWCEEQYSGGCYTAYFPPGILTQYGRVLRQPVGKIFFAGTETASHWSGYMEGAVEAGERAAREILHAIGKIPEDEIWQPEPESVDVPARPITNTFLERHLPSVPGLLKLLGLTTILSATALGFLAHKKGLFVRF
Protocol: as §1, §2, §3, §4, §5, §6, §7, §8, §9

[1] = test system: MAO in the brain (substrate 5-HT); experiment: MAO inhibition ex vivo in brain of rats, substrate 5-HT; design: species or system male albino rats (Fu-SPF); conditions: rat, 100 μmol/kg orally, 2 hrs., given in percentage of the control values
Protocol: as §1
(§10) The compounds to be tested are investigated for the inhibition of MAO in the brain and liver of male albino rats (Fu-SPF, 100-140 g. The test compounds are administered orally as a solution or suspension in water in a dosage of 100 μmol per kilogram body weight. After 2 hrs. the animals are narcotized and decapitated. The brain (without cerebellum) and a portion of the liver are dissected out and submitted analogously to the above-described procedure for the determination of the MAO inhibiting activity, whereby the amount of enzyme used is 20 μl of a 1:20 homogenate in the case of brain and 20 μl of a 1:80 homogenate in the case of liver. The activity of the compounds is determined from a comparison of the β-values with the values for control animals treated with vehicle and is given in percentage of the control values.

[2] = test system: MAO in the brain (substrate PEA); experiment: MAO inhibition ex vivo in brain of rats, substrate PEA; design: species or system male albino rats (Fu-SPF); conditions: rat, 100 μmol/kg orally, 2 hrs., given in percentage of the control values
Protocol: as §1, §10

[3] = test system: MAO in the liver (substrate 5-HT); experiment: MAO inhibition ex vivo in liver of rats, substrate 5-HT; design: species or system male albino rats (Fu-SPF); conditions: rat, 100 μmol/kg orally, 2 hrs., given in percentage of the control values
Protocol: as §1, §10

[4] = test system: MAO in the liver (substrate PEA); experiment: MAO inhibition ex vivo in liver of rats, substrate PEA; design: species or system male albino rats (Fu-SPF); conditions: rat, 100 μmol/kg orally, 2 hrs., given in percentage of the control values
Protocol: as §1, §10

[5] = Preliminary oral toxicity testing in mice; format: in vivo; conditions: one mouse per dosage; for LLD (lowest lethal dose): death within 24 hrs.; for MTD: in vivo, survival, read-out: HTD (highest tolerated dose)
Source text: The toxicity of the compounds in accordance with the invention is investigated by orally administering different dosages of the dissolved or suspended compounds to mice. One mouse is used per dosage. The dosage is halved stepwise so that a dosage range of about 1.5 to the power of ten is covered. The results of this preliminary toxicity testing are reproduced in the form of two administered dosages.
The higher dosage (LLD=lowest lethal dose) led to death within 24 hrs., the lower dosage (HTD=highest tolerated dose) was survival. (Dosage data in miligram per kilogram body weight, administered orally).

SMILES | IC50 (MAO (substrate 5-HT)) | IC50 (MAO (substrate PEA)) | Remaining brain MAO activity, 5-HT (% of control) [1] | Remaining brain MAO activity (PEA), % of control [2] | MAO inhibition, Liver, 5HT [3] | Remaining liver MAO activity (PEA), % of control [4] | LLD (lowest lethal dose) [5] | MTD [5]
CC1=NCCn2c1ccc2-c1ccc(O[C@@H]2C[C@H]3CC[C@@H]2C3)cc1 (relative stereo) [3,4-Dihydro-1-methyl-6-[p-(2-exonorbornyloxy)phenyl]pyrrolo[1,2-a]pyrazine] | 20 nM | 3 nM | 45% | 11% | 51% | 10% | – | –
CC1=NCCn2c1ccc2-c1ccccc1 [3,4-Dihydro-1-methyl-6-phenylpyrrolo[1,2-a]pyrazine] | 300 nM | > 1000 nM | – | – | – | – | – | –
CC1=NCCn2cc(-c3ccccc3)cc21 [3,4-Dihydro-1-methyl-7-phenylpyrrolo[1,2-a]pyrazine] | 90 nM | > 1000 nM | – | – | – | – | – | –
COc1ccc(-c2ccc3n2CCN=C3C)cc1 [3,4-Dihydro-6-(p-methoxyphenyl)-1-methylpyrrolo[1,2-a]pyrazine] | 50 nM | > 1000 nM | – | – | – | – | – | –
CC1=NCCn2c1cc1c2-c2ccc(Cl)cc2CC1 [3-Chloro-5,6,10,11-tetrahydro-8-methylbenzo[g]pyrazino[1,2-a]indole] | 10 nM | > 1000 nM | 42% | 93% | 20% | 96% | – | –
CC1=NCCn2c1cc1c2-c2ccc(C3CCCCC3)cc2CC1 [3-cyclohexyl-5,6,10,11-tetrahydro-8-methylbenzo[g]pyrazino[1,2-a]indole] | 2 nM | 160 nM | – | – | – | – | – | –
CC1=NCCn2c1cc1c2-c2ccc(OC3CCCC3)cc2CC1 [3-cyclopentyloxy-5,6,10,11-tetrahydro-8-methylbenzo[g]pyrazino[1,2-a]indole] | 1 nM | 7 nM | 13% | 45% | 8% | 50% | – | –
CC1NCCn2c1cc1c2-c2ccccc2CC1 (centres unmarked) [5,6,8,9,10,11-Hexahydro-8-methylbenzo[g]pyrazino[1,2-a]indole] | 90 nM | > 1000 nM | 69% | 95% | 55% | 78% | – | –
COc1ccc2c(c1)CCc1cc3n(c1-2)CCN=C3C [5,6,10,11-Tetrahydro-3-methoxy-8-methyl-benzo[g]pyrazino[1,2-a]indole] | 0.8 nM | > 1000 nM | 28% | 86% | 5% | 87% | – | –
CC1=NCCn2c1cc1c2-c2ccccc2CC1 [5,6,10,11-Tetrahydro-8-methylbenzo[g]pyrazino[1,2-a]indole] | 30 nM | > 1000 nM | 48% | 87% | 47% | 81% | – | –
CC1=NCCn2c1ccc2-c1ccc(Cl)cc1 [6-(p-Chlorophenyl)-3,4-dihydro-1-methylpyrrolo[1,2-a]pyrazine] | 350 nM | 10000 nM | – | – | – | – | – | –
CC1=NCCn2c1ccc2-c1ccc(Cl)cc1.O=C(O)/C=C/C(=O)O [Example 2, 6-(p-chloro-phenyl)-3,4-dihydro-1-methylpyrrolo[1,2-a]pyrazine fumarate (1:1)] | – | – | – | – | – | – | 625 miligram per kilogram body wei | 312 mg/kg
CC1=NCCn2c1ccc2-c1ccccc1.O=C(O)/C=C/C(=O)O [Example 9, 3,4-dihydro-1-methyl-6-phenylpyrrolo[1,2-a]pyrazine fumarate (1:1)] | – | – | – | – | – | – | 625 miligram per kilogram body wei | 312 mg/kg
CC1=NCCn2c1cc1c2-c2ccccc2CC1 [Example 10, 5,6,10,11-tetrahydro-8-methyl-benzo[g]pyrazino[1,2-a]indole fumarate (2:3)] | – | – | – | – | – | – | 312 miligram per kilogram body wei | 156 mg/kg
CC1=NCCn2c1cc1c2-c2ccc(Cl)cc2CC1.O=C(O)/C=C/C(=O)O [Example 12, 3-chloro-5,6,10,11-tetrahydro-8-methylbenzo[g]pyrazino[1,2-a]indole fumarate (1:1)] | – | – | – | – | – | – | 250 miligram per kilogram body wei | 125 mg/kg
CC1NCCn2c1cc1c2-c2ccccc2CC1.O=C(O)/C=C/C(=O)O (centres unmarked) [Example 29, 5,6,8,9,10,11-hexahydro-8-methylbenzo[g]pyrazino[1,2-a]indole fumarate (1:1)] | – | – | – | – | – | – | 625 miligram per kilogram body wei | 312 mg/kg
CC1NCCn2c1cc1c2-c2ccc(Cl)cc2CC1.O=C(O)/C=C/C(=O)O (centres unmarked) [Example 31, 3-chloro-5,6,8,9,10,11-hexahydro-8-methylbenzo[g]pyrazino[1,2-a]indole fumarate (1:1)] | – | – | – | – | – | – | 1000 miligram per kilogram body wei | 500 mg/kg
CC1=NCCn2c1ccc2-c1ccc(OC2CCCC2)cc1.O=C(O)/C=C/C(=O)O [Example 37, 6-[p-(cyclopentyloxy)phenyl]-3,4-dihydro-1-methylpyrrolo[1,2-a]pyrazine fumarate (1:1)] | – | – | – | – | – | – | 625 miligram per kilogram body wei | 312 mg/kg
CC1=NCCn2c1cc1c2-c2ccc(OC3CCCC3)cc2CC1.O=C(O)/C=C/C(=O)O [Example 53, 3-cyclopentyloxy-5,6,10,11-tetrahydro-8-methylbenzo[g]pyrazino[1,2-a]indole fumarate (1:1)] | – | – | – | – | – | – | 500 miligram per kilogram body wei | 250 mg/kg
